# Assay results as given in US20050272822A1 (priority 2001, published 2005).
# Structures can show the parent of a compound that is named as a salt.
# How the values were obtained:
# monoamine oxidase = settings: cited from earlier work
# muscaranic receptors = settings: in vitro; cited from earlier work
# histaminergic receptors = settings: in vitro; cited from earlier work
# adrenergic receptors = settings: in vitro; cited from earlier work
# [1] = Stability in moist environments and in processes involving water; type: physicochemical
# [2] = Water vapor sorption/desorption (dynamic vapor sorption); settings: two water sorption/desorption cycles, 25° C.
# Description: The sample weight changes were monitored as function of the time and relative humidity. Two identical relative humidity-time experiment cycles (0 to 90% relative humidity) were performed to detect any changes in solid-state properties.
SMILES,inhibitory activity on monoamine oxidase (monoamine oxidase),affinity for muscaranic receptors (muscaranic receptors),affinity for histaminergic receptors (histaminergic receptors),affinity for adrenergic receptors (adrenergic receptors),stability in moist environments ([1]; atmospheres having at least 20% relative humidity),"stability in processes involving water compared with known forms ([1]; processes involving water, such as wet granulation)",solid-state transition during dehydration/hydration cycling [2]
"COc1ccc(C(CN(C)C)C2(O)CCCCC2)cc1 (stereo not shown) [venlafaxine, 1-[2-(dimethylamino)-1-(4-methoxyphenyl)ethyl]cyclohexanol]",no inhibitory activity,virtually no affinity,virtually no affinity,virtually no affinity,–,–,–
COc1ccc(C(CN(C)C)C2(O)CCCCC2)cc1 (stereo not shown) [venlafaxine hydrochloride monohydrate],–,–,–,–,stable,more stable than known forms,reversible
